This is an account of results in BindingDB's records for doi:10.1124/jpet.300.2.478 (Abbott Laboratories, 2002).

Assay [1] addresses T1, Alpha-1B adrenergic receptor (Homo sapiens, UniProt P35368).
T1 sequence (P35368 whole entry): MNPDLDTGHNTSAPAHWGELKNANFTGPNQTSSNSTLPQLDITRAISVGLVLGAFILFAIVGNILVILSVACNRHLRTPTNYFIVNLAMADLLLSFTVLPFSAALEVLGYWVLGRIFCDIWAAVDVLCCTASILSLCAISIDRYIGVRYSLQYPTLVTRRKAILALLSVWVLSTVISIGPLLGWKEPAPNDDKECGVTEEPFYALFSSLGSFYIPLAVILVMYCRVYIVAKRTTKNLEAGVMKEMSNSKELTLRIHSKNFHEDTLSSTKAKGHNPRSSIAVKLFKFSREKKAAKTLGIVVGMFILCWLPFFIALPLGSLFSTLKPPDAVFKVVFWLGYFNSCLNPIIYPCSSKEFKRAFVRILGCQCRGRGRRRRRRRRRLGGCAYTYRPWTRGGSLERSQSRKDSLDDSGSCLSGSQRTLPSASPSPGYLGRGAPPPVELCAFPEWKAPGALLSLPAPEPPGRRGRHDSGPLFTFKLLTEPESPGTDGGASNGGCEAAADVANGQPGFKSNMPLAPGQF

Assay [2] addresses T2, Alpha-1D adrenergic receptor (Homo sapiens, UniProt P25100).
T2 sequence (P25100 whole entry): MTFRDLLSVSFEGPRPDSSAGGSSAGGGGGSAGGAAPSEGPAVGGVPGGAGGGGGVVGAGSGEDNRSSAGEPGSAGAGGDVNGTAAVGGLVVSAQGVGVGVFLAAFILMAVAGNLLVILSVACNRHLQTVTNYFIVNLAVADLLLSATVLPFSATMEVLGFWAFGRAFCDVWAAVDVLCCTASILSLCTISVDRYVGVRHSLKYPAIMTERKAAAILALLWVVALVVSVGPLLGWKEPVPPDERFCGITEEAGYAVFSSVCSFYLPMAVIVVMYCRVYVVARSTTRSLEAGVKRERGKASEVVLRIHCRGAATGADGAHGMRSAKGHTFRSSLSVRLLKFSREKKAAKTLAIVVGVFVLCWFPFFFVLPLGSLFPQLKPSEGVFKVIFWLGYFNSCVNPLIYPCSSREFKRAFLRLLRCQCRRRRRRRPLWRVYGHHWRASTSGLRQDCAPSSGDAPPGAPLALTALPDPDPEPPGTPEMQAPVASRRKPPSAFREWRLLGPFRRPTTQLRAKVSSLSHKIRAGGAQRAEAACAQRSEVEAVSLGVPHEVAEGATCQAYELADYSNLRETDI

In the case of `CCOc1ccccc1OCCN[C@H](C)Cc1ccc(OC)c(S(N)(=O)=O)c1` [5-[(2R)-2-{[2-(2-ethoxyphenoxy)ethyl]amino}propyl]-2-methoxybenzenesulfonamide], the Ki (in general, the equilibrium dissociation constant of an inhibitor or competing ligand from its target) in assay [1] amounted to 0.6 nM; in assay [2], 0.056 nM.
Turning to `COc1cc2nc(N3CCN(C(=O)C4CCCO4)CC3)nc(N)c2cc1OC` (stereo not given) [6,7-dimethoxy-2-[4-(tetrahydrofuran-2-ylcarbonyl)piperazin-1-yl]quinazolin-4-amine], affinity in assay [2] was put at a Ki of 0.66 nM.
Consider `COc1cccc2c1C1CN(CCCCn3c(=O)[nH]c4c(sc5ncc(-c6ccccc6)nc54)c3=O)CC1CO2` (stereo not given) [CAS_172307], for which the Ki in assay [1] was 25.1 nM; in assay [2] it was 0.91 nM.
